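GI50 marks 50% less growth. The concentration for full growth arrest is given as TGI.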
Experiments:
Assay in all cases: DTP human tumour cell line panel, 384-well format
[1] = system: MDA-MB-435 melanoma
[2] = system: SK-MEL-28 melanoma
[3] = system: RXF 393 renal
[4] = system: MALME-3M melanoma
[5] = system: NCI-H322M lung
[6] = system: SNB-19 CNS
[7] = system: BT-549 breast
[8] = system: 786-0 renal
[9] = system: KM12 colon
[10] = system: HCT-15 colon
[11] = system: HCT-116 colon
[12] = system: SW-620 colon
[13] = system: M14 melanoma
[14] = system: T-47D breast
[15] = system: SR leukemia
[16] = system: PC-3 prostate
[17] = system: IGROV1 ovarian
[18] = system: CAKI-1 renal
[19] = system: NCI-H460 NSCLC
[20] = system: SN12C renal
[21] = system: NCI-H226 lung
[22] = system: OVCAR-5 ovarian
[23] = system: MDA-MB-468 breast
[24] = system: UACC-62 melanoma
[25] = system: NCI-H522 lung
[26] = system: K-562 leukemia
[27] = system: SF-268 CNS
[28] = system: HT29 colon
[29] = system: MDA-MB-231 breast
[30] = system: HOP-92 NSCLC
[31] = system: CCRF-CEM leukemia
[32] = system: MCF7 breast
[33] = system: LOX IMVI melanoma
[34] = system: DU-145 prostate
[35] = system: RPMI-8226 leukemia
[36] = system: COLO 205 colon
[37] = system: UO-31 renal
[38] = system: OVCAR-4 ovarian
[39] = system: HOP-62 NSCLC
[40] = system: SF-295 CNS
[41] = system: OVCAR-8 ovarian
[42] = system: U251 glioblastoma
[43] = system: A549 NSCLC
[44] = system: OVCAR-3 ovarian
[45] = system: SK-MEL-5 melanoma
[46] = system: A498 renal
[47] = system: NCI-H23 lung
[48] = system: MOLT-4 leukemia
[49] = system: HL-60(TB) leukemia
[50] = system: TK-10 renal
[51] = system: SK-MEL-2 melanoma
[52] = system: UACC-257 melanoma
[53] = system: HCC-2998 colon
[54] = system: NCI/ADR-RES ovarian
[55] = system: SF-539 CNS
[56] = system: ACHN renal
[57] = system: SK-OV-3 ovarian

## CNC(=O)n1ccc2cc(Oc3ccnc(NC(=O)c4ccc(C5CCN(CCO)CC5)cc4)c3)c(OCCOC)cc21
[1]
  GI50: 2250 nM
  TGI: 4050 nM
[2]
  GI50: 1840 nM
  TGI: 3250 nM
[3]
  GI50: 304 nM
  TGI: 913 nM
[4]
  GI50: 1830 nM
  TGI: 3240 nM
[5]
  GI50: 1830 nM
  TGI: 4690 nM
[6]
  GI50: 3610 nM
  TGI: 11800 nM
[7]
  GI50: 1370 nM
  TGI: 3060 nM
[8]
  GI50: 1120 nM
  TGI: 2430 nM
[9]
  GI50: 1840 nM
  TGI: 3650 nM
[10]
  GI50: 1670 nM
  TGI: 3180 nM
[11]
  GI50: 1320 nM
  TGI: 2650 nM
[12]
  GI50: 3010 nM
  TGI: 4960 nM
[13]
  GI50: 1910 nM
  TGI: 3330 nM
[14]
  GI50: 1080 nM
  TGI: 2300 nM
[15]
  GI50: 830 nM
  TGI: 2050 nM
[16]
  GI50: 2310 nM
  TGI: 4650 nM
[17]
  GI50: 3480 nM
  TGI: 14000 nM
[18]
  GI50: 2770 nM
  TGI: 5470 nM
[19]
  GI50: 1650 nM
  TGI: 3100 nM
[20]
  GI50: 3500 nM
  TGI: 9770 nM
[21]
  GI50: 66.3 nM
  TGI: 2180 nM
[22]
  GI50: 1970 nM
  TGI: 7920 nM
[23]
  GI50: 1860 nM
  TGI: 3280 nM
[24]
  GI50: 1750 nM
  TGI: 3160 nM
[25]
  GI50: 2130 nM
  TGI: 3850 nM
[26]
  GI50: 186 nM
  TGI: 451 nM
[27]
  GI50: 1770 nM
  TGI: 3650 nM
[28]
  GI50: 171 nM
  TGI: 699 nM
[29]
  GI50: 1650 nM
  TGI: 3170 nM
[30]
  GI50: 1650 nM
  TGI: 3550 nM
[31]
  GI50: 1740 nM
  TGI: 3130 nM
[32]
  GI50: 1350 nM
  TGI: 3300 nM
[33]
  GI50: 1720 nM
  TGI: 3110 nM
[34]
  GI50: 3600 nM
  TGI: 12400 nM
[35]
  GI50: 1520 nM
  TGI: 2860 nM
[36]
  GI50: 2270 nM
  TGI: 5230 nM
[37]
  GI50: 498 nM
  TGI: 1740 nM
[38]
  GI50: 1380 nM
  TGI: 2830 nM
[39]
  GI50: 2120 nM
  TGI: 4610 nM
[40]
  GI50: 1820 nM
  TGI: 3760 nM
[41]
  GI50: 1820 nM
  TGI: 3300 nM
[42]
  GI50: 1560 nM
  TGI: 3110 nM
[43]
  GI50: 3210 nM
  TGI: 11100 nM
[44]
  GI50: 2030 nM
  TGI: 3650 nM
[45]
  GI50: 1480 nM
  TGI: 2810 nM
[46]
  GI50: 1260 nM
  TGI: 2960 nM
[47]
  GI50: 3860 nM
  TGI: 13400 nM
[48]
  GI50: 1400 nM
  TGI: 2700 nM
[49]
  GI50: 2480 nM
  TGI: 3950 nM
[50]
  GI50: 1960 nM
  TGI: 4440 nM
[51]
  GI50: 1590 nM
  TGI: 2990 nM
[52]
  GI50: 1420 nM
  TGI: 2730 nM
[53]
  GI50: 2240 nM
  TGI: 4070 nM
[54]
  GI50: 4830 nM
  TGI: 16600 nM
[55]
  GI50: 1020 nM
  TGI: 2190 nM
[56]
  GI50: 1730 nM
  TGI: 3310 nM
[57]
  GI50: 1830 nM
  TGI: 3620 nM

From PubChem BioAssay (NCI)
